Measurements published in US20250206745A1, “PYRROLOPYRIDAZINE DERIVATIVES AND RELATED USES” (NodThera Limited, priority 2023, published 2025).
Where a name gives a salt, the structure may show the parent alone.

Columns and labels:
[1] = tested on: IL-1β release upon NLRP3 activation in peripheral blood mononuclear cells (PBMC); assay: PBMC IC50 Determination Assay; assay type: cell-based; conditions: Homo sapiens; inhibition of IL-1β release; PBMC primed with LPS, stimulated with ATP or nigericin; ELISA or HTRF
Procedure, shortened: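 Human buffy-coat PBMC primed 3 h with LPS (1 μg/mL in Protocol B), given compound for 30 min, then stimulated 1 h with 5 mM ATP or 10 μM nigericin (Protocol A) or 5 mM ATP (Protocol B). IL-1β in supernatant measured by ELISA at 450 nm (A) or HTRF (B).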

[2] = tested on: IL-1β release upon NLRP3 activation in phorbol 12-myristate 13-acetate (PMA)-differentiated THP-1 cells; assay: THP-1 IC50 Determination Assay; assay type: cell-based; conditions: Homo sapiens, inhibition of IL-1β release, LPS, nigericin, ELISA
Procedure, shortened: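 THP-1 cells differentiated with 5 ng/mL PMA for ~40 h, plated 30,000/well and primed 2 h with 25 ng/mL LPS. Compounds added as 8-point 1:3 series (0.5% DMSO), then nigericin activation for 2 h at 37 °C; supernatant IL-1β measured by ELISA.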

Structure (SMILES) | IC50 [2] | IC50 [1]
Cc1cc(Cl)cc(O)c1-c1cc2ccn(CC(=O)N(C)[C@H]3CCOC3)c2nn1 [Compound 59, 2-[3-(4-Chloro-2-hydroxy-6-methylphenyl)-7H-pyrrolo[2,3-c]pyridazin-7-yl]-N-methyl-N-[(3S)-oxolan-3-yl]acetamide] | 100 to 300 nM | 30 to 100 nM
Cc1cc(Cl)cc(O)c1-c1cc2ncn(CC3CCN(C)CC3)c2nn1 [Compound 71, 5-Chloro-3-methyl-2-{7-[(1-methylpiperidin-4-yl)methyl]-7H-imidazo[4,5-c]pyridazin-3-yl}phenol] | 30 to 100 nM | < 30 nM
CC(=O)N1CCC(Cn2cnc3cc(-c4c(C)cc(Cl)cc4O)nnc32)CC1 [Compound 72, 1-(4-{[3-(4-Chloro-2-hydroxy-6-methylphenyl)-7H-imidazo[4,5-c]pyridazin-7-yl]methyl}piperidin-1-yl)ethan-1-one] | 30 to 100 nM | 30 to 100 nM
Cc1cc(C#N)cc(O)c1-c1cc2ncn(CC3CCN(C)CC3)c2nn1 [Compound 73, 3-Hydroxy-5-methyl-4-{7-[(1-methylpiperidin-4-yl)methyl]-7H-imidazo[4,5-c]pyridazin-3-yl}benzonitrile] | 300 to 1000 nM | 100 to 300 nM
Cc1cc(Cl)cc(O)c1-c1cc2ncn(C[C@@H]3CCN(C)C3)c2nn1 [Compound 75, 5-Chloro-3-methyl-2-(7-{[(3R)-1-methylpyrrolidin-3-yl]methyl}-7H-imidazo[4,5-c]pyridazin-3-yl)phenol hydrochloride] | 100 to 300 nM | 30 to 100 nM

The next lines start with results.

IC50 [2] | Structure (SMILES) | IC50 [1]
30 to 100 nM | CC(=O)N1CCCCC1Cn1ccc2cc(-c3c(C)cc(Cl)cc3O)nnc21 (centres unmarked) [Compound 57, 1-(2-{[3-(4-Chloro-2-hydroxy-6-methylphenyl)-7H-pyrrolo[2,3-c]pyridazin-7-yl]methyl}piperidin-1-yl)ethan-1-one] | 30 to 100 nM
100 to 300 nM | Cc1cc(Cl)cc(O)c1-c1cc2ccn(CC(=O)N(C)C3COC3)c2nn1 [Compound 58, 2-[3-(4-Chloro-2-hydroxy-6-methylphenyl)-7H-pyrrolo[2,3-c]pyridazin-7-yl]-N-methyl-N-(oxetan-3-yl)acetamide] | 100 to 300 nM
30 to 100 nM | Cc1cc(Cl)cc(O)c1-c1cc2ccn(CC3CCN(C=O)CC3)c2nn1 [Compound 63, 4-{[3-(4-Chloro-2-hydroxy-6-methylphenyl)-7H-pyrrolo[2,3-c]pyridazin-7-yl]methyl}piperidine-1-carbaldehyde] | < 30 nM
30 to 100 nM | Cc1cc(Cl)cc(O)c1-c1cc2ccn(CC3CCC(=O)N3C)c2nn1 (centres unmarked) [Compound 65, 5-{[3-(4-Chloro-2-hydroxy-6-methylphenyl)-7H-pyrrolo[2,3-c]pyridazin-7-yl]methyl}-1-methylpyrrolidin-2-one] | 30 to 100 nM
30 to 100 nM | Cc1cc(Cl)cc(O)c1-c1cc2ncn(C[C@H]3CCN(C)C3)c2nn1 [Compound 74, 5-Chloro-3-methyl-2-(7-{[(3S)-1-methylpyrrolidin-3-yl]methyl}-7H-imidazo[4,5-c]pyridazin-3-yl)phenol hydrochloride] | 30 to 100 nM
30 to 100 nM | Cc1cc(C)c(-c2cc3ncn(CC4CCN(C)CC4)c3nn2)c(O)c1 [Compound 76, 3,5-Dimethyl-2-{7-[(1-methylpiperidin-4-yl)methyl]-7H-imidazo[4,5-c]pyridazin-3-yl}phenol] | 30 to 100 nM
100 to 300 nM | Cc1cc(Cl)cc(O)c1-c1cc2ncn(CC(=O)N(C)C)c2nn1 [Compound 77, 2-[3-(4-Chloro-2-hydroxy-6-methylphenyl)-7H-imidazo[4,5-c]pyridazin-7-yl]-N,N-dimethylacetamide] | 30 to 100 nM
30 to 100 nM | Cc1cc(Cl)cc(O)c1-c1cc2ncn(CC3(F)CCN(C)CC3)c2nn1 [Compound 78, 5-Chloro-2-{7-[(4-fluoro-1-methylpiperidin-4-yl)methyl]-7H-imidazo[4,5-c]pyridazin-3-yl}-3-methylphenol hydrochloride] | 30 to 100 nM
